The target in one data set is human MC4 receptor (Homo sapiens, UniProt P32245). In words: biochemical. As for the experimental part:
Assay (V)—Melanocortin Receptor 4 (MC4) Binding Assay
In Vitro ^125NDP-α-MSH Binding to Recombinant BHK Cells Expressing Human MC4 Receptor (Filtration Assay).
The assay was performed in 5 ml minisorb vials (Sarstedt No. 55.526) or in 96-well filter-plates (Millipore MADVN 6550), and using BHK cells expressing the human MC4 receptor using BHK cells stably expressing the human MC4 receptor. The membranes were prepared from frozen or fresh cells that were homogenized in 20 mM HEPES pH 7.1, 5 mM MgCl2 and 1 mg/ml bacitracin and centrifuged at 15000 rpm at 4° C., 10 min in a Sorvall RC 5B plus, SS-34 rotor. The supernatant was discarded, and the pellets were re-suspended in buffer, homogenized and centrifuged two more times. The final pellets were resuspended in the buffer mentioned above, and the protein concentration was measured and adjusted with buffer to 14 to 17 mg/ml and the membrane preparation were kept at −80° C. until assay. The assay was run directly on a dilution of this cell membrane suspension, without any further preparation. The BHK cell membranes are kept at −80° C. until assay, and the assay is run directly on a dilution of this cell membrane suspension, without further preparation. The suspension is diluted to give maximally 10% specific binding, i.e. to approx. 50-100 fold dilution. The assay was performed in a total volume of 200 μl: 50 μl of cell suspension, 50 μl of ^125NDP-α-MSH (≈79 pM in final concentration), 50 μl of test compound and 50 μl binding buffer (pH 7) mixed and incubated for 2 h at 25° C. [binding buffer: 25 mM HEPES, pH 7.0, 1 mM CaCl2, 1 mM MgSO4, 1 mM EGTA, 0.02% Bacitracin, 0.005% Tween™ 20 and 0.1% HSA or, alternatively, 0.1% ovalbumin (Sigma; catalogue No. A-5503)]. Test compounds were dissolved in DMSO and diluted in binding buffer. Radiolabelled ligand and membranes were diluted in binding buffer. The incubation was stopped by dilution with 2×100 μl ice-cold 0.9% NaCl. The radioactivity retained on the filters was counted using a Cobra II auto gamma counter.
The data were analysed by non-linear regression analysis of binding curves, using the Windows™ program GraphPad™ Prism (GraphPad Software, USA).

Another data set in a line: physchem. As for the experimental part: From a stock solution in vehicle, either H2O or 10 mM phosphate, containing 1 mg (as weighed) compound per ml, 8-11 aliquots are withdrawn and pH-adjusted individually with HCl/NaOH, to cover the whole pH range.
A further data set addresses MC1 receptor (Homo sapiens, UniProt Q01726). In words: biochemical. The method in brief: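 Compounds competed against 125I-NDP-α-MSH (22 pM final) for binding to stably MC1-expressing BHK cell membranes, 30 °C for 90 min in HEPES pH 7.4 buffer with 0.1% HSA or ovalbumin. Bound ligand collected by filtration and counted; binding curves analysed by non-linear regression.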

The structures appear in SMILES notation. ≈ marks a conversion by molar mass, not a printed value. Positions of bridges follow the written chain, without caps; N, C: chain ends. Non-standard residues stand in square brackets, D forms with d. Residues, ends and D or L forms follow the SMILES beside them. Groups on a side chain read outwards from the residue. *: point of attachment. Palmitoyl(16-(5-tetrazolyl)) = O=C(CCCCCCCCCCCCCCCc1nnn[nH]1)*; Lys(CH2CO2H)2 = N[C@@H](CCCCN(CC(=O)O)CC(=O)O)C(=O)O; C18 diacid = O=C(O)CCCCCCCCCCCCCCCCC(=O)*; C17 diacid = O=C(O)CCCCCCCCCCCCCCCC(=O)*; Orn = NCCC[C@H](N)C(=O)O; Dab = NCC[C@H](N)C(=O)O; AEEA = NCCOCCOCC(=O)O

Sequence of human MC4 receptor (P32245 whole entry): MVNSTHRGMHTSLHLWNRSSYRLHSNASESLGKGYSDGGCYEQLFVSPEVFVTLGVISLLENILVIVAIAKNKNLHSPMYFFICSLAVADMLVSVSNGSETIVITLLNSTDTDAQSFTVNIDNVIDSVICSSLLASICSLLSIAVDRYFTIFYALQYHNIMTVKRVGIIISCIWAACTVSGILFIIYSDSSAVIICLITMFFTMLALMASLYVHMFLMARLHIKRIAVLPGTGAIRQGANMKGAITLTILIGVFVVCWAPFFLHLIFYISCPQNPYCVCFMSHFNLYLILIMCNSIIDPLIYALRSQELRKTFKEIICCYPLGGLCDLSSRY
Sequence of MC1 receptor (Q01726 whole entry): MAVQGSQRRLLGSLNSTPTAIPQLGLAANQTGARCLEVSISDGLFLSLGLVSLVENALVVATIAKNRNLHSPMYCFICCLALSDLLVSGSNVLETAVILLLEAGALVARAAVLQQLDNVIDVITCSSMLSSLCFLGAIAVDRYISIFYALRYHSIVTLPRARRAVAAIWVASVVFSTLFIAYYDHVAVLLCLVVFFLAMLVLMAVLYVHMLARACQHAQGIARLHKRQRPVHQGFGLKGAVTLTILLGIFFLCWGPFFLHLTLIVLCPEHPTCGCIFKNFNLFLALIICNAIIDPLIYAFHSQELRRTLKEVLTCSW

`CC(=O)N[C@H]1CCCCNC(=O)C[C@@H](C(=O)N2CCC[C@H]2C(=O)N2CCC[C@H]2C(=O)N[C@@H](Cc2c[nH]cn2)C(=O)N[C@@H](CCC(=O)O)C(=O)N[C@@H](CCCCN(CC(=O)O)CC(=O)O)C(=O)N[C@@H](CCCCNC(=O)COCCOCCNC(=O)CCCCCCCCCCCCCCCC(=O)O)C(N)=O)NC(=O)[C@H](Cc2c[nH]c3ccccc23)NC(=O)[C@H](CCCNC(=N)N)NC(=O)[C@@H](Cc2ccccc2)NC(=O)[C@H](Cc2c[nH]cn2)NC1=O` [Example 44, Ac-c[Lys-His-D-Phe-Arg-Trp-Asp]-Pro-Pro-His-Glu-Lys(biscarboxymethyl)-Lys({2-[2-(16-carboxyhexadecanoylamino)ethoxy]ethoxy}acetyl)-NH2] (Ac-KH[dF]RWDPPHE[Lys(CH2CO2H)2]K([AEEA-C17 diacid])-NH2; lactam 1-6): the results for the Ki on human MC4 receptor and on MC1 receptor were 17 nM and more than 10000 nM, respectively. For the same compound, the solubility in the data set “physchem” (pH 6.5, Solubility Conc.) turned out to be 227 µM (≈ 493 µg/mL); in the data set “physchem” (pH 6.7, Solubility Conc.), 364 µM (≈ 790 µg/mL); in the data set “physchem” (pH 6.8, Solubility Conc.), 407 µM (≈ 884 µg/mL); in the data set “physchem” (pH 7, Solubility Conc.) it was 430 µM (≈ 934 µg/mL); in “physchem” (pH 7.3, Solubility Conc.), 412 µM (≈ 895 µg/mL); in “physchem” (pH 7.6, Solubility Conc.), 407 µM (≈ 884 µg/mL). In addition, the solubility in the data set “physchem” (pH 7.8, Solubility Conc.) was found to be 429 µM (≈ 932 µg/mL); in “physchem” (pH 8, Solubility Conc.) it was 408 µM (≈ 886 µg/mL); in the data set “physchem” (pH 8.2, Solubility Conc.), 430 µM (≈ 934 µg/mL).

Take `CC(=O)N[C@H]1CCNC(=O)CC[C@@H](C(=O)N2CCC[C@H]2C(=O)N2CCC[C@H]2C(=O)N[C@@H](CCCNC(=N)N)C(=O)N[C@@H](CC(=O)O)C(=O)N[C@@H](CCCCN(CC(=O)O)CC(=O)O)C(=O)N[C@@H](CCCCNC(=O)COCCOCCNC(=O)CCCCCCCCCCCCCCCc2nnn[nH]2)C(N)=O)NC(=O)[C@H](Cc2c[nH]c3ccccc23)NC(=O)[C@H](CCCNC(=N)N)NC(=O)[C@@H](Cc2ccccc2)NC(=O)[C@H](Cc2c[nH]cn2)NC1=O` [Example 23, Ac-c[Dab-His-D-Phe-Arg-Trp-Glu]-Pro-Pro-Arg-Asp-Lys(biscarboxymethyl)-Lys[(2-{2-[16-(tetrazol-5-yl)hexadecanoylamino]ethoxy}ethoxy)acetyl]-NH2] (Ac-[Dab]H[dF]RWEPPRD[Lys(CH2CO2H)2]K([AEEA-Palmitoyl(16-(5-tetrazolyl))])-NH2; lactam 1-6): the Ki at human MC4 receptor was 107 nM; at MC1 receptor, more than 10000 nM. Moreover, the solubility stood at 73 µM (≈ 160 µg/mL) in the data set “physchem” (pH 4.7, Solubility Conc.); 34 µM (≈ 74.3 µg/mL) in the data set “physchem” (pH 6.1, Solubility Conc.); 38 µM (≈ 83.1 µg/mL) in “physchem” (pH 6.6, Solubility Conc.); 45 µM (≈ 98.4 µg/mL) in “physchem” (pH 6.9, Solubility Conc.); 76 µM (≈ 166 µg/mL) in “physchem” (pH 7.2, Solubility Conc.); 145 µM (≈ 317 µg/mL) in the data set “physchem” (pH 7.4, Solubility Conc.). The solubility was determined as 229 µM (≈ 501 µg/mL) in “physchem” (pH 7.6, Solubility Conc.); 295 µM (≈ 645 µg/mL) in “physchem” (pH 7.7, Solubility Conc.); 300 µM (≈ 656 µg/mL) in the data set “physchem” (pH 7.9, Solubility Conc.).

Consider `CC(=O)N[C@H]1CCCNC(=O)C[C@@H](C(=O)N2CCC[C@H]2C(=O)N[C@@H](CO)C(=O)N[C@@H](CO)C(=O)N[C@@H](CO)C(=O)N[C@@H](CCCCN(CC(=O)O)CC(=O)O)C(=O)N[C@@H](CO)C(=O)N[C@@H](CO)C(=O)N[C@@H](CCCCNC(=O)COCCOCCNC(=O)CCCCCCCCCCCCCCCCC(=O)O)C(N)=O)NC(=O)[C@H](Cc2c[nH]c3ccccc23)NC(=O)[C@H](CCCNC(=N)N)NC(=O)[C@@H](Cc2ccccc2)NC(=O)[C@H](Cc2c[nH]cn2)NC1=O` [Example 14, Ac-c[Orn-His-D-Phe-Arg-Trp-Asp]-Pro-Ser-Ser-Ser-Lys(biscarboxymethyl)-Ser-Ser-Lys({2-[2-(17-carboxyheptadecanoylamino)ethoxy]ethoxy}acetyl)-NH2] (Ac-[Orn]H[dF]RWDPSSS[Lys(CH2CO2H)2]SSK([AEEA-C18 diacid])-NH2; lactam 1-6), for which the inhibition constant Ki at human MC4 receptor was 0.8 nM. Moreover, the solubility came out at 61 µM (≈ 137 µg/mL) in the data set “physchem” (pH 6.4, Solubility Conc., pH 6.4, vehicle 10 mM phosphate); 148 µM (≈ 332 µg/mL) in “physchem” (pH 6.7, Solubility Conc., pH 6.7, vehicle 10 mM phosphate); 403 µM (≈ 904 µg/mL) in the data set “physchem” (pH 6.9, Solubility Conc., pH 6.9, vehicle 10 mM phosphate); 485 µM (≈ 1090 µg/mL) in “physchem” (pH 7, Solubility Conc., pH 7.0, vehicle 10 mM phosphate); 507 µM (≈ 1140 µg/mL) in the data set “physchem” (pH 7.2, Solubility Conc., pH 7.2, vehicle 10 mM phosphate); 535 µM (≈ 1200 µg/mL) in the data set “physchem” (pH 7.3, Solubility Conc., pH 7.3, vehicle 10 mM phosphate). The solubility in “physchem” (pH 7.4, Solubility Conc., pH 7.4, vehicle 10 mM phosphate) was 513 µM (≈ 1150 µg/mL); in the data set “physchem” (pH 7.8, Solubility Conc., pH 7.8, vehicle 10 mM phosphate) it was 506 µM (≈ 1140 µg/mL); in “physchem” (pH 8, Solubility Conc., pH 8.0, vehicle 10 mM phosphate) it was 517 µM (≈ 1160 µg/mL).

On to `CC(=O)N[C@H]1CCC(=O)NCCC[C@@H](C(=O)N2CCC[C@H]2C(=O)N2CCC[C@H]2C(=O)N[C@@H](CCCNC(=N)N)C(=O)N[C@@H](CC(=O)O)C(=O)N[C@@H](CCCCN(CC(=O)O)CC(=O)O)C(=O)N[C@@H](CCCCNC(=O)COCCOCCNC(=O)CCCCCCCCCCCCCCCCC(=O)O)C(N)=O)NC(=O)[C@H](Cc2c[nH]c3ccccc23)NC(=O)[C@H](CCCNC(=N)N)NC(=O)[C@@H](Cc2ccccc2)NC(=O)[C@H](Cc2cnc[nH]2)NC1=O` [Example 38, Ac-c[Glu-His-D-Phe-Arg-Trp-Orn]-Pro-Pro-Arg-Asp-Lys(biscarboxymethyl)-Lys({2-[2-(17-carboxyheptadecanoylamino)ethoxy]ethoxy}acetyl)-NH2] (Ac-EH[dF]RW[Orn]PPRD[Lys(CH2CO2H)2]K([AEEA-C18 diacid])-NH2; lactam 1-6), for which the affinity at human MC4 receptor, expressed as Ki, was 0.9 nM. Further, the solubility in “physchem” (pH 5.4, Solubility Conc.) turned out to be 21 µM (≈ 46 µg/mL); in the data set “physchem” (pH 6.2, Solubility Conc.), 36 µM (≈ 78.9 µg/mL); in “physchem” (pH 6.5, Solubility Conc.), 58 µM (≈ 127 µg/mL); in “physchem” (pH 7, Solubility Conc.), 111 µM (≈ 243 µg/mL); in “physchem” (pH 7.4, Solubility Conc.), 218 µM (≈ 478 µg/mL); in “physchem” (pH 7.5, Solubility Conc.) it was 282 µM (≈ 618 µg/mL). For the same compound, the solubility came to 360 µM (≈ 789 µg/mL) in the data set “physchem” (pH 7.6, Solubility Conc.); 422 µM (≈ 924 µg/mL) in “physchem” (pH 7.7, Solubility Conc.); 430 µM (≈ 942 µg/mL) in “physchem” (pH 7.9, Solubility Conc.).

`CC(=O)N[C@H]1CC(=O)NCCCC[C@@H](C(=O)N2CCC[C@H]2C(=O)N2CCC[C@H]2C(=O)N[C@@H](CCCNC(=N)N)C(=O)N[C@@H](CC(=O)O)C(=O)N[C@@H](CCCCN(CC(=O)O)CC(=O)O)C(=O)N[C@@H](CCCCNC(=O)COCCOCCNC(=O)CCCCCCCCCCCCCCCc2nnn[nH]2)C(N)=O)NC(=O)[C@H](Cc2c[nH]c3ccccc23)NC(=O)[C@H](CCCNC(=N)N)NC(=O)[C@@H](Cc2ccccc2)NC(=O)[C@H](Cc2c[nH]cn2)NC1=O` [Example 35, Ac-c[Asp-His-D-Phe-Arg-Trp-Lys]-Pro-Pro-Arg-Asp-Lys(biscarboxymethyl)-Lys[(2-{2-[16-(tetrazol-5-yl)hexadecanoylamino]ethoxy}ethoxy)acetyl]-NH2] (Ac-DH[dF]RWKPPRD[Lys(CH2CO2H)2]K([AEEA-Palmitoyl(16-(5-tetrazolyl))])-NH2; lactam 1-6): affinity at human MC4 receptor was put at a Ki of 13 nM. Also, the solubility stood at 24 µM (≈ 52.8 µg/mL) in “physchem” (pH 6.4, Solubility Conc.); 44 µM (≈ 96.8 µg/mL) in “physchem” (pH 6.8, Solubility Conc.); 126 µM (≈ 277 µg/mL) in the data set “physchem” (pH 7.2, Solubility Conc.); 211 µM (≈ 464 µg/mL) in “physchem” (pH 7.3, Solubility Conc.); 425 µM (≈ 935 µg/mL) in the data set “physchem” (pH 7.4, Solubility Conc.); 526 µM (≈ 1160 µg/mL) in “physchem” (pH 7.5, Solubility Conc.). Also, the solubility in “physchem” (pH 7.7, Solubility Conc.) was 537 µM (≈ 1180 µg/mL); in the data set “physchem” (pH 7.9, Solubility Conc.) it was 572 µM (≈ 1260 µg/mL).

A word on the Ki: it is a dissociation constant, usually derived from enzyme kinetics or from competition with a known ligand. Broadly, the solubility is how much of the substance goes into solution per volume. A high value points to much dissolved substance.

For the origin of these results see patent US20130012432A1, “Peptides for Treatment of Obesity” (Novo Nordisk A/S, priority 2010, published 2013).
